Measured values from ChEMBL document CHEMBL1136941, “Discovery of novel arylpyrazole series as potent and selective opioid receptor-like 1 (ORL1) antagonists” (Bioorg Med Chem Lett, 2009).

How the values were obtained:
Nociceptin receptor [1] = target: T1, Nociceptin receptor (Homo sapiens, UniProt P41146); assay: Displacement of [125I]Tyr14-NC/OFQ from human ORL1 receptor
Nociceptin receptor [2] = target: T1, Nociceptin receptor; assay: Antagonist activity at ORL1 receptor expressed in CHO cells assessed as inhibition of NC/OFQ-stimulated [35S]GTPgammaS binding; type: functional, cell-based
[3] = target: Voltage-gated inwardly rectifying potassium channel KCNH2 (Homo sapiens, UniProt Q12809); assay: Displacement of [35S]MK499 from human ERG expressed in HEK293 cells
[4] = Lipophilicity, log D at pH 7.4 by shake-flask method; type: physicochemical; conditions: buffer
Mu-type opioid receptor = Mu-type opioid receptor (Homo sapiens, UniProt P35372); assay: Displacement of [3H]diprenorphin from human cloned mu opioid receptor expressed in CHO cells; type: cell-based
[5] = target: Kappa-type opioid receptor (Homo sapiens, UniProt P41145); assay: Displacement of [3H]U69593 from human cloned kappa opioid receptor expressed in CHO cells; type: cell-based
Sequence of Kappa-type opioid receptor (P41145 whole entry): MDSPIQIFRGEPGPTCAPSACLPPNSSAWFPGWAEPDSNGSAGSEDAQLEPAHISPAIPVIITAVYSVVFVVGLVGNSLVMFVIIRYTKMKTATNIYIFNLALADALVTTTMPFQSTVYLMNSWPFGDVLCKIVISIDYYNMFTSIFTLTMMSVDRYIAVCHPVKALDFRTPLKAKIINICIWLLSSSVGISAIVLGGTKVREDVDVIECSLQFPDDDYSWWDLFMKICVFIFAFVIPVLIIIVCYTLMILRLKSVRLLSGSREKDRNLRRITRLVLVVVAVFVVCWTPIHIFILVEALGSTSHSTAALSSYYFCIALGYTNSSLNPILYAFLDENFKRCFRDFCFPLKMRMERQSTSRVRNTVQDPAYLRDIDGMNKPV

Sequence of Voltage-gated inwardly rectifying potassium channel KCNH2 (Q12809 whole entry): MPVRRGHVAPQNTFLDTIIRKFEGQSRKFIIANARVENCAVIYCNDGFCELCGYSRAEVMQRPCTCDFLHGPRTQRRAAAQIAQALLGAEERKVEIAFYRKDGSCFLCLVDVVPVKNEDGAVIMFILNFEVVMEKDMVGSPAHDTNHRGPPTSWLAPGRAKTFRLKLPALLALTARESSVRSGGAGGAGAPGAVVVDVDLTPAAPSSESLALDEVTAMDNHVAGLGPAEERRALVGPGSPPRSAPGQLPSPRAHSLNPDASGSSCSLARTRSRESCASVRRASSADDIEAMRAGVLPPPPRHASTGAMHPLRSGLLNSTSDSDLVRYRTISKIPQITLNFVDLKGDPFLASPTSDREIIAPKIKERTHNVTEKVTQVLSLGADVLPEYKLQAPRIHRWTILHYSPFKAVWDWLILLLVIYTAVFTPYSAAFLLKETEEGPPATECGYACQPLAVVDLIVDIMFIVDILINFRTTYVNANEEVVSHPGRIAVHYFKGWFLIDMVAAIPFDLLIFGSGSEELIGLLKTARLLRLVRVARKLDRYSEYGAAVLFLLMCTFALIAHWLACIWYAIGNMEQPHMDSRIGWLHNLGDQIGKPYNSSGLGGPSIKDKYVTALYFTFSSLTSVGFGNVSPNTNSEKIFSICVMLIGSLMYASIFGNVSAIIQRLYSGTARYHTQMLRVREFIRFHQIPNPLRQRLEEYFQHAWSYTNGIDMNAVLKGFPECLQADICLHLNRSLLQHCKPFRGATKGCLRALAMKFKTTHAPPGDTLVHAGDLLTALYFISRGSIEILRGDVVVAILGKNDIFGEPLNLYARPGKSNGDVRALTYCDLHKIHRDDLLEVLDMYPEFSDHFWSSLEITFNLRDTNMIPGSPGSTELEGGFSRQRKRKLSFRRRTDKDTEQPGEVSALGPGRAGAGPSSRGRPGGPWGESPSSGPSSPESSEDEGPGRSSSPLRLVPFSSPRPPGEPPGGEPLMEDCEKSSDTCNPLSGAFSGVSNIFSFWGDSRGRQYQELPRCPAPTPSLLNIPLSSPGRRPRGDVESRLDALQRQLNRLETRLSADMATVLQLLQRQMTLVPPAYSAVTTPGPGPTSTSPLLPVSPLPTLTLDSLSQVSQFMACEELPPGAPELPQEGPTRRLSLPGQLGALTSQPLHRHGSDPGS
T1 sequence (P41146 whole entry): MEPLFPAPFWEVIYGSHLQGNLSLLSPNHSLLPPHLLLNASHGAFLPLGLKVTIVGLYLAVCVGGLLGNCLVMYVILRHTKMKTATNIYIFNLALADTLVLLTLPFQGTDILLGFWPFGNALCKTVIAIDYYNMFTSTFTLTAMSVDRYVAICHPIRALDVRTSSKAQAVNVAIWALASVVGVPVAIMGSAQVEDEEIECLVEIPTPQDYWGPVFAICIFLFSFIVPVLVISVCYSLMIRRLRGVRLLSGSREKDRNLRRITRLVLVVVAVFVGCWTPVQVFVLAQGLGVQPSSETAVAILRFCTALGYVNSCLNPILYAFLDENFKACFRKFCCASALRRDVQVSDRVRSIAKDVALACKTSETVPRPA
Sequence of Mu-type opioid receptor (P35372 whole entry): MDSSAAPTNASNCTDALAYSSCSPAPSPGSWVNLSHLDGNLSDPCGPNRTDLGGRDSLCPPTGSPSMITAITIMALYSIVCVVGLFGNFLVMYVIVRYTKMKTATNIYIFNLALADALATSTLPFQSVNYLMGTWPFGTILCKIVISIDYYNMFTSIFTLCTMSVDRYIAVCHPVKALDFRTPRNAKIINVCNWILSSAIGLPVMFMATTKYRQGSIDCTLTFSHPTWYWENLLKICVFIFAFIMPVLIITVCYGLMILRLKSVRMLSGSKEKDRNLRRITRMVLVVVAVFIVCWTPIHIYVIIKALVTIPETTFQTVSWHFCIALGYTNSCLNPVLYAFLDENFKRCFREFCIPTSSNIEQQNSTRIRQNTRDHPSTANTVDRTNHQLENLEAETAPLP

| IC50 (Nociceptin receptor [1]) | IC50 (Nociceptin receptor [2]) | logD [4] | IC50 (Mu-type opioid receptor) | IC50 [5] | Structure (SMILES) | IC50 [3] |
| --- | --- | --- | --- | --- | --- | --- |
| 7.1 nM | 11 nM | 2 | – | – | Cc1ccc(-c2c(C)c(CNC3CCCC3F)nn2-c2ncccc2Cl)cn1 (stereo not given) | 30000 nM |
| 61 nM | – | 1.3 | – | – | Cc1c(CNC2CCCC2)nn(-c2ncccc2Cl)c1-c1cccnc1 | 23000 nM |
| – | – | 2.9 | – | – | Cc1c(CNC2CCCC2)nn(-c2ccc(Cl)cc2Cl)c1-c1cccnc1 | – |
| 67 nM | – | 2 | – | – | CCc1ccc(-c2c(C)c(CNC3CCCC3)nn2-c2ncccc2Cl)cn1 | – |
| 350 nM | 480 nM | – | – | – | Cc1c(CNC(C)C)nn(-c2ccc(Cl)cc2Cl)c1-c1ccc(Cl)cc1 | 23 nM |
| > 1000 nM | – | – | – | – | Cc1c(CN(C(C)C)C2CCCCC2)nn(-c2ccc(Cl)cc2Cl)c1-c1ccc(Cl)cc1 | – |
| 28 nM | – | > 4 | – | – | Cc1c(CNC2CCCC2)nn(-c2ccc(Cl)cc2Cl)c1-c1ccc(Cl)cc1 | 23 nM |
| 2.5 nM | 1 nM | 1.3 | – | – | Cc1ccc(-c2c(C)c(CN[C@H]3CC[C@@H](F)C3)nn2-c2ncccc2Cl)cn1 | – |
| > 1000 nM | – | – | – | – | Cc1c(CNC2CCCC2)nn(-c2ccc(Cl)cc2Cl)c1-c1ccncc1 | – |
| > 1000 nM | – | – | – | – | Cc1c(CN(C)C2CCCCC2)nn(-c2ccc(Cl)cc2Cl)c1-c1ccc(Cl)cc1 | – |
| 0.52 nM | 0.31 nM | 1.8 | 5600 nM | 530 nM | Cc1ncc(-c2c(C)c(CN[C@H]3CC[C@@H](F)C3)nn2-c2ncccc2Cl)cc1F | 41000 nM |
| 8.2 nM | – | 2.5 | – | – | Cc1ccc(-c2c(C)c(CNC3CCCC3)nn2-c2ncc(Cl)cc2Cl)cn1 | – |
| 530 nM | – | – | – | – | Cc1c(CNC2CCCC2)nn(-c2ccc(Cl)cc2Cl)c1-c1ccccn1 | – |
| 13 nM | – | 1.6 | – | – | Cc1cncc(-c2c(C)c(CNC3CCCC3)nn2-c2ncccc2Cl)c1 | 9000 nM |
| 9.3 nM | 4.5 nM | 2.1 | – | – | Cc1ccc(-c2c(C)c(CNC3CCC(F)(F)C3)nn2-c2ncccc2Cl)cn1 (stereo not given) | 21000 nM |
| 33 nM | – | 1.2 | – | – | Cc1ccc(-c2c(C)c(CNC3CCCC3)nn2-c2ncccc2C)cn1 | – |
| 1.1 nM | 1.2 nM | 2.1 | – | – | Cc1ncc(-c2c(C)c(CNC3CCCC3)nn2-c2ncccc2Cl)cc1F | – |
| 36 nM | – | 1.9 | – | – | Cc1ccc(-c2c(C)c(CNC3CCCC3)nn2-c2ncccc2C(F)(F)F)cn1 | – |
| 4 nM | 4.7 nM | 1.7 | – | – | Cc1ccc(-c2c(C)c(CNC3CCCC3)nn2-c2ncccc2Cl)cn1 | 16000 nM |
| 270 nM | – | 2.2 | – | – | Cc1c(CNC2CCCC2)nn(-c2ncccc2Cl)c1-c1ccc(C(F)(F)F)nc1 | – |
| 150 nM | – | – | – | – | Cc1c(CNCCC(C)C)nn(-c2ccc(Cl)cc2Cl)c1-c1ccc(Cl)cc1 | – |
| 11 nM | 12 nM | 2.1 | – | – | Cc1c(CNC2CCCC2)nn(-c2ncccc2Cl)c1-c1ccc(Cl)nc1 | 2700 nM |
| 72 nM | – | – | – | – | Cc1ccc(-c2c(C)c(CNC3CCCC3)nn2-c2ncccc2S(C)(=O)=O)cn1 | – |

| Structure (SMILES) | IC50 (Nociceptin receptor [1]) | IC50 (Nociceptin receptor [2]) | logD [4] | IC50 (Mu-type opioid receptor) | IC50 [5] | IC50 [3] |
| --- | --- | --- | --- | --- | --- | --- |
| Cc1c(CNCC(C)C)nn(-c2ccc(Cl)cc2Cl)c1-c1ccc(Cl)cc1 | 150 nM | – | – | – | – | – |
| Cc1c(CN2CCCCC2)nn(-c2ccc(Cl)cc2Cl)c1-c1ccc(Cl)cc1 | 560 nM | – | – | – | – | – |
| Cc1c(CNC2CCCCC2)nn(-c2ccc(Cl)cc2Cl)c1-c1ccc(Cl)cc1 | 75 nM | – | – | – | – | – |
